Patent publication US20180258459A1, “NITRATE BIOSENSOR” (priority 2015, published 2018)

Tested on: NarL associated promoter
Experiment: transfer of natural NarL with its associated promoter into B. subtilis
Type: cell-based
Details: natural NarL protein with its associated promoter, previous attempts

NarL: response regulator (RR) protein NarL from E. coli (UniProt P0AF28)
functional transcription in B. subtilis: failed to result in functional transcription
